Source: PMC8586700 (Frontiers in Pharmacology, 2021)
Like-named read-outs stand apart in the source and are kept apart here.

Key:
[1] = parameters: method as in Yang et al., 2007; details: ref Yang et al., 2007; cited from earlier work
[2] = Stability experiment in plasma and brain homogenate samples; type: in vitro ADME, SD rats; details: for Recoveries after being kept at room temperature for 12 h: plasma samples
Protocol: Three blank samples of plasma and brain homogenate of SD rats were added into the mixed standard solution. The stability experiment included placing at room temperature for 12 h, repeatedly freeze-thaw for three times and frozen for 15 days.

[3] = Repeated administration, drug concentrations of plasma and brain; type: in vivo, SD rats; details: for Detection in brain tissue: after repeated administration; for Mean concentrations±sd in brain after multiple doses: brain homogenate; for Effect on plasma concentration of DHC: repeated administration with CUR
Protocol: (§1) Plasma or brain homogenate of SD rats was taken 50 μL, internal standard solution of 50 μL and protein precipitator of 150 μL were added. After eddy oscillation for 3 min, supernatant was separated by centrifugation.
The concentration of drugs in plasma and brain homogenate after repeated administration was determined according to the same grouping and administration method. The loading dose of 200 mg kg^−1 was given for the first time and half doses for four consecutive days.
(§2) Plasma was collected by centrifugation of blood at 3000 RPM for 10min, and stored at -80 °C. Brain tissue of SD rat was dissected, weighed and added with normal saline at a volume of 2 ml g^−1. After homogenating brain tissue for 3 min by a homogenizer at 14,000 RPM, the supernatant was collected after centrifugation at 12,000 RPM for 10 min.

[4] = Solubility in solvents and vehicles; type: physicochemical
Source text: DMSO is a universal organic solvent that is mutually soluble with most solvents and has a protective effect on red blood cells, platelets, bone marrow and various tissue cells during cryopreservation ([Willson et al., 1965]).

[5] = tested on: rats; parameters: method as in Willson et al., 1965; details: intragastric administration, ref Willson et al., 1965; cited from earlier work
[6] = Pharmacokinetic experiment, single intragastric administration, plasma by HPLC-UV; type: in vivo, SD rats; details: for concentration at 40 min / concentration at 60 min / concentration at 90 min / concentration at 150 min / concentration at 210 min: SD (Sprague-Dawley); for concentration at 40 min / concentration at 60 min / concentration at 90 min / concentration at 150 min / concentration at 210 min / concentration at 20 min / concentration at 270 min / concentration at 330 min / AUC / Cmax / half-life / Tmax: rat, plasma, po; for concentration at 20 min / concentration at 270 min / concentration at 330 min: SD; for AUC / Cmax / half-life / Tmax: Sprague-Dawley, 150 mg/kg, PIP or ILE 150 mg kg^−1 oral together with CUR 200 mg kg^−1; for AUC: read-out: AUC(0-tn) (converted); for Cmax: read-out: Cmax; for half-life: read-out: T1/2(el); for Tmax: read-out: Tmax (converted); for Effect of combined administration with CUR on plasma concentration of DHC: single administration, drug-time curve
Protocol: An Agilent 1200 HPLC system was used. […] The flow rate was set at 1 ml min^−1 and detection wavelength was 420, 340 and 323 nm. Injection volume was 5 μL. The column temperature was set at 30°C.
as §1
Blood samples were collected from tail vein at 20 min, 40 min, 1, 1.5, 2.5, 3.5, 4.5, and 5.5 h after intragastric administration.
as §2

[7] = Group B (CUR 200 mg kg^−1 and PIP 150 mg kg^−1 oral), read-out: Mean concentrations ±sd, PIP
[8] = ILE compared with PIP at the same dose
[9] = Mean concentrations ±sd, ILE, Group C (CUR 200 mg kg^−1 and ILE 150 mg kg^−1 oral)

Row | Recoveries after repeated freezing-thawing for three times ([2]; brain homogenate) | Recoveries after repeated freezing-thawing for three times ([2]; plasma) | Recoveries after being kept at room temperature for 12 h [2] | Detection in brain tissue [3] | Solubility in DMSO [4] | Mean concentrations±sd in brain after multiple doses [3] | AUC [6] | Cmax [6] | half-life [6] | Tmax [6] | SMILES | Effect on plasma concentration of DHC [3] | Effect of combined administration with CUR on plasma concentration of DHC [6] | further results
1 | over 100% | over 100% | less than 30% | could not be detected | well dissolved |  |  |  |  |  | COc1cc(/C=C/C(=O)CC(=O)/C=C/c2ccc(O)c(OC)c2)ccc1O [CUR, Curcumin] |  |  | Oral bioavailability [1]: 1%; recovery at 12 h ([2]; SD, rat, brain homogenate samples, read-out: Recovery after 12 h placement at room temperature): < 15%; Solubility in EtOH and glycerin [4]: slightly soluble; Solubility in water and various plant extracted oils [4]: insoluble
2 |  |  |  |  |  |  |  |  |  |  | C[S+](C)[O-] [DMSO, dimethyl sulfoxide] |  |  | Adverse reactions in the experimental animals ([3]; DMSO as solvent of intragastric administration for five consecutive days, SD rats): no adverse reactions occurred; LD50 [5]: 28300 mg/kg
3 | over 100% | over 100% | lower than 75% | could be detected | well dissolved | 2100 ± 100 ng/mL | 11700 ng·h/mL | 4200 ± 700 ng/mL | 2.79 ± 0.59 h | 1.13 h | O=C(/C=C/C=C/c1ccc2c(c1)OCO2)N1CCCCC1 [PIP, Piperine, reference compound] | could both increase the plasma concentration of DHC | no obvious effect | Recovery after 12 h placement at room temperature ([2]; brain homogenate samples): only showed slight decrease; Mean concentrations±sd, PIP in plasma after multiple doses ([3]; Group II: CUR and PIP): 2400 ± 500 ng/mL; concentration at 40 min [6, 7]: 2100 ± 700 ng/mL; concentration at 60 min [6, 7]: 4200 ± 700 ng/mL; concentration at 90 min [6, 7]: 2600 ± 500 ng/mL; concentration at 150 min [6, 7]: 2400 ± 900 ng/mL; concentration at 210 min [6, 7]: 2200 ± 500 ng/mL; concentration at 20 min [6, 7]: 1400 ± 400 ng/mL; concentration at 270 min [6, 7]: 1700 ± 400 ng/mL; concentration at 330 min [6, 7]: 1400 ± 200 ng/mL
4 | over 100% | over 100% |  | could be detected | well dissolved | 1600 ± 200 ng/mL | 15400 ng·h/mL | 5500 ± 2000 ng/mL | 1.67 ± 0.287 h | 3.07 h | O=C(/C=C/c1ccc2c(c1)OCO2)N1CCCCC1 [ILE, Ilepcimide, reference compound] | could both increase the plasma concentration of DHC | could increase plasma concentration of DHC | AUC(0-tn) increased by [6, 8]: 32.1%; T1/2 decreased by [6, 8]: 40.2%; Tmax increased by [6, 8]: 1.7 times; concentration at 40 min [6, 9]: 1600 ± 100 ng/mL; concentration at 60 min [6, 9]: 2000 ± 500 ng/mL; concentration at 90 min [6, 9]: 2800 ± 900 ng/mL; concentration at 150 min [6, 9]: 5500 ± 1900 ng/mL; concentration at 210 min [6, 9]: 3400 ± 500 ng/mL; concentration at 20 min [6, 9]: 1300 ± 800 ng/mL; concentration at 270 min [6, 9]: 2200 ± 400 ng/mL; concentration at 330 min [6, 9]: 1200 ± 800 ng/mL
